Data from patent publication US11723360B2 (priority 2018, dated 2023).
≈ marks a conversion by molar mass, not a printed value. Read-outs that look alike come from different tables or passages of the source.

How the values were obtained:
[1] = tested on: Caenorhabditis elegans; test: Insecticidal bioassay against Caenorhabditis elegans in 96-well plate; type: in vivo; details: for LC50: Caenorhabditis elegans
Procedure: 20 μL of 1 mg/mL methylmalonic acid aqueous solution was added to the 96-well plate, and at the same time, purified water was added; the final concentrations of the methylmalonic acid in the well plate was adjusted to […] in order; 40 nematodes were added to each well; and a bioassay system was 200 μL in total, with the purified water as a control. The process was repeated 3 times for each group. They were cultured in an incubator at 16° C.
20 μL of 1 mg/mL mixed aqueous solution of methylmalonic acid and betaine (mass ratio: 1:1) was added to the 96-well plate, and at the same time, purified water was added; the final concentrations of the compounded solution in the well plate was adjusted to 1000, 100, 25, 16.67, 12.5, 10, 1, 0.5, 0.25 μg/mL in order; and 40 nematodes were added to each well; a bioassay system was 200 μL in total, with the purified water as a control, and 3 times repeated for each group. They were cultured in an incubator at 16° C.

[2] = tested on: Meloidogyne incognita; test: Insecticidal bioassay against root-knot nematodes in 96-well plate; parameters: Lethality Rate (%): dose or concentration left out as unconfirmed; details: for LC50: Meloidogyne incognita
[3] = tested on: Erwinia carotovora; test: Agar plate diffusion method, bacterial plant pathogens; type: cell-based
[4] = tested on: fungal plant pathogens; test: Mycelium growth rate method, summary statement for all fungi tested; type: cell-based; details: Example 5
Procedure: (§1) The mycelia of fungal pathogens were picked and inoculated to a PDA medium for activation. With a mycelium growth rate method, 200 μg/mL methylmalonic acid mother liquid was prepared using sterile water; 4.5 mL of sterile water was added to 0.5 mL of the mother liquid and evenly mixed; fungal masses were picked and placed in a PDA culture medium plate center, and then cultured at 28° C. to observe the results, with the sterile water as a negative control. After the plate was fully covered with the control mycelia, the diameters of the control and treatment colonies were counted with a crossing method.
as §1, with “μg/mL mixed aqueous solution of” for “μg/mL”, “acid and betaine (mass ratio: 1:1)” for “acid mother liquid”, “the mixed solution” for “the mother liquid”

[5] = tested on: Xanthomonas campestris; test: Agar plate diffusion method, bacterial plant pathogens; type: cell-based; details: 5 μL of 0.1 g/mL on 6 mm filter paper, 30° C.
[6] = tested on: Botrytis cinerea; test: Mycelium growth rate method, fungal plant pathogens; type: cell-based; parameters: key: +: effective; −: ineffective; details: 28° C.
Procedure: as §1
as §1, with “μg/mL mixed aqueous solution of” for “μg/mL”, “acid and betaine (mass ratio: 1:1)” for “acid mother liquid”, “the mixed solution” for “the mother liquid”

[7] = tested on: Alternaria solani; test: as above; type: cell-based; parameters: key: +: effective; −: ineffective; details: 28° C.
Procedure: as §1
as §1, with “μg/mL mixed aqueous solution of” for “μg/mL”, “acid and betaine (mass ratio: 1:1)” for “acid mother liquid”, “the mixed solution” for “the mother liquid”

[8] = tested on: Fusarium oxysporum; test: as above; type: cell-based; parameters: key: +: effective; −: ineffective; details: 28° C.
Procedure: as §1
as §1, with “μg/mL mixed aqueous solution of” for “μg/mL”, “acid and betaine (mass ratio: 1:1)” for “acid mother liquid”, “the mixed solution” for “the mother liquid”

[9] = tested on: Rhizoctonia solani; test: as above; type: cell-based; parameters: key: +: effective; −: ineffective; details: 28° C.
Procedure: as §1
as §1, with “μg/mL mixed aqueous solution of” for “μg/mL”, “acid and betaine (mass ratio: 1:1)” for “acid mother liquid”, “the mixed solution” for “the mother liquid”

[10] = tested on: Sclerotinia sclerotiorum; test: as above; type: cell-based; parameters: key: +: effective; −: ineffective; details: 28° C.
Procedure: as §1
as §1, with “μg/mL mixed aqueous solution of” for “μg/mL”, “acid and betaine (mass ratio: 1:1)” for “acid mother liquid”, “the mixed solution” for “the mother liquid”

[11] = tested on: Pestalotiopsis theae; test: as above; type: cell-based; parameters: key: +: effective; −: ineffective; details: 28° C.
Procedure: as §1
as §1, with “μg/mL mixed aqueous solution of” for “μg/mL”, “acid and betaine (mass ratio: 1:1)” for “acid mother liquid”, “the mixed solution” for “the mother liquid”

[12] = tested on: Phytophthora capsici; test: as above; type: cell-based; parameters: key: +: effective; −: ineffective; details: 28° C.
Procedure: as §1
as §1, with “μg/mL mixed aqueous solution of” for “μg/mL”, “acid and betaine (mass ratio: 1:1)” for “acid mother liquid”, “the mixed solution” for “the mother liquid”

[13] = tested on: Corynespora cassiicola; test: as above; type: cell-based; parameters: key: +: effective; −: ineffective; details: 28° C.
Procedure: as §1
as §1, with “μg/mL mixed aqueous solution of” for “μg/mL”, “acid and betaine (mass ratio: 1:1)” for “acid mother liquid”, “the mixed solution” for “the mother liquid”

[14] = water, alcohol, ether; cited from earlier work
[15] = tested on: Ralstonia solanacearum; type: cell-based
[16] = read-out: LC50 against the Meloidogyne incognita
[17] = read-out: LC50 value against the Meloidogyne incognita
[18] = 5 μL of 0.1 g/mL on 6 mm filter paper, 30° C.
[19] = 200 μg/mL mother liquid, 0.5 mL + 4.5 mL sterile water, PDA
[20] = Example 9: 200 μg/mL mixed aqueous solution of methylmalonic acid and betaine (1:1), 0.5 mL + 4.5 mL water

Structure (SMILES): C[N+](C)(C)CC(=O)O [betaine]
- LC50 ([1]; text of Examples 3 and 7, read-out: LC50 against the Caenorhabditis elegans): 14.8 µg/mL
- LC50 [2, 16]: 75.2 µg/mL
- LC50 [2, 17]: 75.2 µg/mL

Structure (SMILES): CC(C(=O)O)C(=O)O [methylmalonic acid]
- LC50 ([1]; 16° C., table value, read-out: Medial Lethal Concentration (LC50, ug/mL)): 1.2 µg/mL (≈ 10.2 µM)
- LC50 ([1]; read-out: LC50 value against the Caenorhabditis elegans, text of Example 3): 1.2 µg/mL (≈ 10.2 µM)
- Lethality Rate (%) ([1]; Dose 1 pg/mL): 18.4%
- Lethality Rate (%) ([1]; Dose 10 pg/mL): 70.0%
- Lethality Rate (%) ([1]; Dose 16.67 pg/mL): 94.9%
- Lethality Rate (%) ([1]; Dose 25 pg/mL): 90.5%
- Lethality Rate (%) ([1]; Dose 100 pg/mL): 97.4%
- Lethality Rate (%) ([1]; Dose 1000 pg/mL): 97.5%
- Diameter of Inhibition Zone [3, 18]: 6.9 mm
- Microbicidal Effect [3, 18]: + (with microbicidal activity, the diameter of an inhibition zone being less than 10 mm)
- microbicidal activity against the Erwinia carotovora ([3]; 5 μL of 0.1 g/mL, Example 4): showed a microbicidal activity
- microbicidal activity against the fungal plant pathogens [4]: showed no microbicidal activity
- Lethality Rate (%) ([2]; Dose 1): 8.1%
- Lethality Rate (%) ([2]; Dose 10): 12.5%
- Lethality Rate (%) ([2]; Dose 12.5): 29.3%
- Lethality Rate (%) ([2]; Dose 16.67): 76.3%
- Lethality Rate (%) ([2]; Dose 25): 81.1%
- Lethality Rate (%) ([2]; Dose 50): 80%
- Lethality Rate (%) ([2]; Dose 100): 97.5%
- Lethality Rate (%) ([2]; Dose 1000): 97.4%
- LC50 [2, 16]: 13.1 µg/mL (≈ 111 µM)
- LC50 [2, 17]: 13.1 µg/mL (≈ 111 µM)
- LC50 ([2]; read-out: Medial Lethal Concentration (LC50, ug/mL)): 13.1 µg/mL (≈ 111 µM)
- Diameter of Inhibition Zone [5]: 0 mm
- Microbicidal Effect [5]: −
- Microbicidal Effect [6, 19]: −
- Microbicidal Effect [6, 20]: −
- Microbicidal Effect [7, 19]: −
- Microbicidal Effect [7, 20]: −
- Microbicidal Effect [8, 19]: −
- Microbicidal Effect [8, 20]: −
- Microbicidal Effect [9, 19]: −
- Microbicidal Effect [9, 20]: −
- Microbicidal Effect [10, 19]: −
- Microbicidal Effect [10, 20]: −
- Microbicidal Effect [11, 19]: −
- Microbicidal Effect [11, 20]: −
- Microbicidal Effect [12, 19]: −
- Microbicidal Effect [12, 20]: −
- Microbicidal Effect [13, 19]: −
- Microbicidal Effect [13, 20]: −
- solubility (physical properties) [14]: soluble in water, alcohol and ether
- Diameter of Inhibition Zone [15, 18]: 12 mm
- Microbicidal Effect [15, 18]: ++ (with microbicidal activity, and the diameter of an inhibition zone being more than 10 mm)
- microbicidal activity against the Pseudomonas solanacearum ([15]; 5 μL of 0.1 g/mL, Example 4): showed a microbicidal activity
